Reference: patent US11873313B1, “Development of novel tetra nuclear distorted square anti-prism Dy (III) imine complex for pharmaceutical and industrial applications” (KING FAISAL UNIVERSITY, priority 2023, dated 2024)
≈ marks a conversion by molar mass, not a printed value.

Experiments:
[1] = tested on: colon cancer cell line; assay: Anti-cancer activity against colon cancer cell line; format: cell-based; settings: read-out: IC50 (anticancer activity)
[2] = tested on: breast cancer cell line; assay: Anti-oxidant activity; settings: against the breast cancer cell line (so in the source)
[3] = tested on: E-coli bacteria; assay: Anti-microbial activity (antibacterial, inhibition zone and MIC); format: cell-based

With `CC[C@]1(O)C[C@@H]2CN(CCc3c([nH]c4ccccc34)[C@@](C(=O)OC)(c3cc4c(cc3OC)N(C)[C@H]3[C@@](O)(C(=O)OC)[C@H](OC(C)=O)[C@]5(CC)C=CCN6CC[C@]43[C@@H]65)C2)C1` [vinblastine, reference compound] the IC50 [1] was 4.7 µg/mL (≈ 5.8 µM).
With `O=C1O[C@H]([C@@H](O)CO)C(O)=C1O` [1-ascorbic acid, reference compound] the “IC50 (Antioxidant activity)” value [2] was 55.2 µg/mL (≈ 313 µM).
`CC1COc2c(N3CCN(C)CC3)c(F)cc3c(=O)c(C(=O)O)cn1c23` (stereo not shown) [Ofloxacin, reference compound] was tested, and the inhibition zone [3] was 30 mm and the MIC ([3]; Escherichia coli) was 2.25 µg/mL (≈ 6.23 µM).
